Legend:
[1] = system: Mouse adipocytes (3T3-L1); test: Adipocyte differentiation, oil-red O staining; assay type: cell-based; details: 3T3-L1 co-treated with DMI, 8 days, FIG. 6
Method: Mouse adipocytes (3T3-L1) were co-treated with DMI (5 μM of dexamethasone, 0.5 mM of 3-isobutyl-1-methylxanthine, and 0.1724 mM of insulin) and different chemicals. After being cultured for 8 days, the cell media was removed and oil-red O staining was used to analyze these adipocytes' differentiation.

[2] = system: S6K phosphorylation caused by insulin; test: Insulin-induced S6K phosphorylation by Western blotting; assay type: cell-based; details: human osteosarcoma cells, 400 nM insulin, 10 minutes; FIG. 7
Method: High concentration insulin can cause phosphorylation and thus cells are resistant to insulin, which is one cause for type II diabetes. In order to mimic type II diabetes, human osteosarcoma cells were cultured in 400 nM of insulin and different chemicals for 10 minutes. After which, Western blotting assay was used to analyze the protein in these cells.

[3] = system: Male C57BL/6 mice on high-fat diet; test: Insulin tolerance testing in mice; assay type: in vivo, mouse; details: mice fasted 3 hours, 1.2 U/kg insulin, 0-120 min; FIG. 13
Method: (§1) Male C57BL/6 mice (8 weeks old) were purchased from the National Laboratory Animal Center. Mice were divided into three groups (n=6 each group): chow diet; high-fat diet (HFD, 60% ResearchDiet, D12492); and HFD gavage with corylin at 100 mg/kg. To compare the metabolic effects of corylin, parameters such as body weights, liver weights and white adipocytes tissue (WAT) weights from epididymal, inguinal and axilla subcutaneous were measured at the end of the treatment. […] For intraperitoneal glucose tolerance testing, mice were fasted for 16 hours and then injected with 2 g/kg of glucose solution. For insulin tolerance testing, mice were fasted for 3 hours and then injected with 1.2 U/kg insulin. Serum blood glucose levels were measured at 0, 15, 30, 60, 90, and 120 min after glucose and insulin injection.

[4] = system: human umbilical vein endothelial cells (HUVEC); test: SA-βgal cellular aging assay in HUVEC; assay type: cell-based; details: corylin in different concentrations, successive generations, FIG. 3
Method: In addition, human umbilical vein endothelial cells (HUVEC) were treated with corylin in different concentrations, and the cells at this moment were called first generation cells. Second generation cells grew by culturing the first generation cells for 2-3 days, and then the second generation cells were treated with corylin in different concentrations. Third to Nth generation cells grew by repeating the culturing process. During each culture process, SA-βgal assay was used to analyze the responding generation cells. The more SA-βgal positive cells the cultured cells contained, the older the cultured cells were.

[5] = system: Male C57BL/6 mice on high-fat diet; test: High-fat diet mice: body, liver and white adipocytes tissue weights; assay type: in vivo, mouse; details: HFD mice, gavage 100 mg/kg, end of treatment
Method: Male C57BL/6 mice (8 weeks old) were purchased from the National Laboratory Animal Center. Mice were divided into three groups (n=6 each group): chow diet; high-fat diet (HFD, 60% ResearchDiet, D12492); and HFD gavage with corylin at 100 mg/kg. To compare the metabolic effects of corylin, parameters such as body weights, liver weights and white adipocytes tissue (WAT) weights from epididymal, inguinal and axilla subcutaneous were measured at the end of the treatment.

[6] = system: Male C57BL/6 mice on high-fat diet; test: Intraperitoneal glucose tolerance testing in mice; assay type: in vivo, mouse; details: mice fasted 16 hours, 2 g/kg glucose, 0-120 min; FIG. 12
Method: as §1

[7] = system: S6K phosphorylation; test: S6K phosphorylation by Western blotting in U2OS cells; assay type: cell-based, human; details: 8 hours
Method: Human osteosarcoma (U2OS) cells were treated with different chemicals in different concentrations. After the cells were cultured for 8 hours, the protein therein was extracted. Finally, Western blotting assay was used to analyze the extracted protein. […] Moreover, human osteosarcoma cells were pre-treated with mammalian SIRT1 inhibitor EX-527 for 1 hour. Afterwards, those cells were treated with 100 μM corylin and cultured for 8 hours. Finally, Western blotting assay was used to analyze the protein extracted from those cells.

[8] = system: yeast cells; test: Replicative life span of yeast cells (passage number); assay type: cell-based; details: YEPD media, 30° C.; FIG. 2
Method: A yeast colony was selected and cultured in a YEPD culture media. When the OD value of the media was at 0.6-0.8, 20 μl of the media containing different chemicals was added to a YEPD solid media, and then 20-30 yeast cells were selected using a tetrad dissection microscope manipulation system. The selected yeast cells were cultured at 30° C. for 3-5 hours to divide into first generation yeast cells. Afterwards, the first generation yeast cells were cultured at 30° C. for 3-5 hours to divide into second generation yeast cells. The culturing step was repeated until final generation yeast cells which cannot divide anymore existed. Finally, the yeast cells' passage number was counted according to the total division number.

[9] = system: ICAM-1 expression; test: Lipopolysaccharide-induced ICAM-1 expression by Western blotting in HASMC; assay type: cell-based, human; details: corylin 24 hours then lipopolysaccharide 24 hours, FIG. 8
Method: Lipopolysaccharide can induce immune response on blood vessels. During immune response, blood vessels can also overexpress ICAM-1, which is one cause of cardiovascular disease. To mimic this disease, human aortic smooth muscle cells (HASMC) were treated with corylin in different concentrations and then cultured for 24 hours. After these cells were treated with lipopolysaccharide for 24 hours, the protein in these cells was extracted and analyzed by Western blotting assay.

Compound | inhibition of adipocytes' differentiation [1] | S6K phosphorylation caused by insulin [2] | insulin tolerance (serum blood glucose) [3] | cells' aging (SA-βgal positive cells) [4] | body weight ([5]; FIG. 9) | liver weight ([5]; FIG. 10) | intraperitoneal glucose tolerance (serum blood glucose) [6] | interference of SIRT1 inhibitor EX-527 with corylin's effect on S6K phosphorylation ([7]; U2OS cells pre-treated with EX-527 for 1 hour, then 100 μM corylin, FIG. 5) | S6K phosphorylation ([7]; U2OS cells, different concentrations, FIG. 4) | yeast cells' passage number (replicative life span) [8] | ICAM-1 expression caused by lipopolysaccharide [9]
Oc1ccc(C=Cc2cc(O)cc(O)c2)cc1 [resveratrol, reference compound] | inhibition of adipocytes' differentiation |  |  |  |  |  |  |  |  |  | 
corylin | more obvious than that caused by resveratrol | can suppress such phosphorylation caused by insulin | can lower | can inhibit the cells' aging in dose-dependent manner | has an effect on the reduction of body weight | has an effect on the reduction of | can lower intraperitoneal glucose tolerance | cannot interfere with the S6K phosphorylation caused by corylin | can suppress S6K phosphorylation in dose-dependent manner | can increase yeast cells' passage number | can inhibit ICAM-1 expression caused by lipopolysaccharide

Reference: patent US9795588B2, “Mammalian TOR inhibitor” (Chang Gung University, priority 2016, dated 2017)
